# Source: PMC8849047, “Salicylate metal-binding isosteres as fragments for metalloenzyme inhibition” (Chemical Science, 2022)
# Like-named read-outs stand apart in the source and are kept apart here.
# Assays:
# [1] = test system: influenza H1N1 N-terminal PA endonuclease (PAN); experiment: PAN endonuclease inhibition assay (fluorescent ssDNA-oligo substrate); assay type: biochemical; conditions: 100 μM; standard deviation in parentheses
# [2] = assay type: physicochemical
# Description: This was confirmed by computationally calculated physicochemical data (Tables S2 and S3 ^†).
# [3] = target: T1, Human recombinant MMP-3 catalytic domain (Homo sapiens, UniProt P08254); experiment: MMP-3 enzyme inhibition assay (chromogenic substrate, 412 nm); assay type: biochemical; conditions: standard deviation in parentheses, read-out: %inhib MMP-3
# T1 construct: Human recombinant MMP-3 catalytic domain was purchased; purchased ENZO Life Sciences BML-SE109-9090
# T1 sequence (P08254 100-272 limits assumed): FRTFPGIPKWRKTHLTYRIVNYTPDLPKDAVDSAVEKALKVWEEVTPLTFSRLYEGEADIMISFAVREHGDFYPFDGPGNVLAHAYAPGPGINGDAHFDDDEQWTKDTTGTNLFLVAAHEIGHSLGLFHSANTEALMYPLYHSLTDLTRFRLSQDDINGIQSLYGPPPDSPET
# Experimental: To probe the selectivity of the salicylate MBIs, the library was screened against matrix metalloproteinase-3 (MMP-3) at fragment concentrations of 100 μM (Table 2).
# Human recombinant MMP-3 catalytic domain was purchased from ENZO Life Sciences (catalog # BML-SE109-9090). Assays were carried out in clear Costar 96-well, half-area, flat-bottom assay plates (catalog # 80-2404). Each well contained a total volume of 100 μL including buffer (50 mM MES, 10 mM CaCl2, 0.05% Brij-35, 1 mM DNTB, pH 6.0), MMP-3 (2 U), and the fragment solution. After a 30 min incubation period at 37 °C, the reaction was initiated by the addition of 10 μL of chromogenic MMP-3 substrate (100 μM final concentration, Ac-Pro-Leu-Gly-[2-mercap-to-4-methyl-pentanoyl]-Leu-Gly-OC2H5, ENZO Life Sciences, catalog #BML-P125-0005). Absorbance was monitored at 412 nm using a Bio-Tek ELx 808 colorimetric plate reader, and measurements were recorded every minute for 10 min. The rate of absorbance increase was compared for samples versus negative controls (no inhibitor, arbitrarily set as 100% activity).
# 5. Single Point screening […]
# Figure S5. Single point screening of salicylate MBI library against MMP-3 at 100 µM inhibitor
# concentration. NNGH as positive control.
# [4] = target: T2, Recombinant human glyoxalase I (GLO1) (Homo sapiens, UniProt Q04760); experiment: GLO1 enzyme inhibition assay (absorbance at 240 nm); assay type: biochemical; conditions: for inhibition at 100 µM: read-out: %inhib GLO1
# T2 construct: purchased R&D Systems 4959-GL
# T2 sequence (Q04760 2-184 limits assumed): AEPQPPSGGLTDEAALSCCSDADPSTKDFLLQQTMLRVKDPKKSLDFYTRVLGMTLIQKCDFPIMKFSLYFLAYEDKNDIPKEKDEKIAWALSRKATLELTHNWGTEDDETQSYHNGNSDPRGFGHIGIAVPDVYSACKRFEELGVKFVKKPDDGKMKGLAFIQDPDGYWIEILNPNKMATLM
# Experimental: To evaluate if the salicylate MBIs could serve as starting points for future FBDD campaigns, the MBI library was screened for inhibitory activity against human glyoxalase I (GLO1) at fragment concentrations of 100 μM (Table 2). […] Recombinant human glyoxalase I (GLO1) was purchased from R&D Systems (catalog #4959-GL). Assays were carried out in 0.1 M sodium phosphate, pH 7.0 buffer, utilizing 96-well clear UV plates (Corning UV Transparent Microplates, catalog #3635). A fresh solution of GSH (100 mM) and methylglyoxal (MG) (100 mM) was prepared in Millipore grade water. […] The substrate mixture was vortexed vigorously for 45 s and then allowed to sit at room temperature for 15 min. The initial well volume was 50 μL containing GLO1 (40 ng) and inhibitor. This protein and inhibitor mixture was incubated for 15–20 min prior to addition of the substrate. […] The enzyme activity was measured utilizing a Biotek Synergy HT or H4 plate reader by measuring absorbance at 240 nm every 1 min for a duration of 8 min. The rate of absorbance increase was compared for samples versus controls containing no inhibitor (set at 100% activity). The absorbance reading for background wells containing DMSO, buffer, and substrate (no enzyme or inhibitor) was subtracted from the experimental wells. […] Dose-response curves were generated, analysed and fitted to obtain IC50 values (see ESI ^†).
# 5. Single Point screening
# Single point screening of salicylate MBI library against GLO1 at 100 µM inhibitor concentration. Chugai 1 (4,6-diphenyl-N-hydroxypyridone) 4 as positive control. […]
# 6. Dose-response curves against GLO1
# The raw data from the GLO1 assay was background corrected and normalized from 0 to 100 with 100 being the largest mean of each dataset. A variable slope log-logistic model was chosen for curve fitting.
# The corresponding datapoints are shown as empty bullets and were not included in the curve-fitting. The resulting restricted datasets were fitted according to a literature procedure setting the lower limit of the dose-response curve to zero. This compensates for the loss of information caused by trimming of the dataset. 5,6
# Figure S7. Dose-response curve of 11 against GLO1.
# [5] = log P by potentiometric titration octanol/water (Sirius T3); log D7.4 calculated from pKa and log P; assay type: physicochemical
# Experimental: In addition to gaining an understanding about the metal coordinating properties of the salicylate MBIs by using [(Tp^Ph,Me)Zn(MBI)] model complexes, the physicochemical properties of the MBIs were also studied. The acidity (pKa) and lipophilicity (log P) were measured using potentiometric methods and the lipophilicity at physiological pH (log D7.4) was calculated from these two values (Table 1).[23–25]
# Physicochemical properties were determined using a Sirius T3 instrument.[23–25] […] The pKa of a compound was determined by analysing each MBI sample in triplicate using potentiometric titrations. Experiments were typically performed over a pH range of 2.0–12.0. Standard deviations were derived from fitting all three replicate experiments. For water insoluble compounds methanol was added and the obtained apparent pKa (psKa) was extrapolated to the aqueous pKa by the Yasuda–Shedlovsky procedure. log P was determined via potentiometric titrations in the presence of varying ratios of octanol and water. The presence of octanol shifts the pKa of ionizable species, and based on the shifts, a log P can be determined. Measurements for log P determination were typically performed over a pH range of 2.0–12.0. Three experiments with varying ratios of water:octanol was performed, allowing for a standard deviation to be determined from the fitting of all measurements. MBI sample sizes were ∼0.5 mg for both pKa and log P measurements.
# [6] = target: T2, Recombinant human glyoxalase I (GLO1); set-up: method as in previous studies (unpublished); conditions: ref previous studies (unpublished); read-out: IC50 against GLO1; cited from earlier work
# [7] = 100 μM, standard deviation in parentheses
SMILES,%inhib Endo (PAN) [1],aqueous solubility [2],inhibition at 100 µM [3] [%],"%inhib GLO1 [4, 7]","inhibition at 100 µM [4, 7] [%]","IC50 ([4]; dose-response curves, read-out: IC50 against GLO1) [µM]",logP [5],logD ([5]; pH 7.4),IC50 [6] [µM]
Oc1ccccc1-c1nc2ccccc2s1 [Compound 11],21 (6) %,poor aqueous solubility,0,almost complete inhibition,94,19.6 ± 4.7,,,
c1ccc2sc(-c3cccc4nc[nH]c34)nc2c1 [Compound 28],4 (8) %,poor aqueous solubility,,,,,,,
"O=C(O)c1ccccc1O [Compound 1, Salicylic acid, reference compound]",12 (7) %,,8,,22,,2.18,-2.4,> 50
CS(=O)(=O)Nc1ccccc1-c1nc2ccccc2s1 [Compound 27],15 (7) %,poor aqueous solubility,0,,44,,,,
